{
  "source": "ChEMBL document CHEMBL2010689",
  "about": "(J Med Chem, 2012)",
  "key": {"[1]": {"test": "Half life in cynomolgus monkey at 3 mg/kg, po", "format": "ADME, organism-based, Macaca fascicularis", "parameters": "dose 3 mg/kg, route oral", "details": "in vivo"}, "[2]": {"molecular_target": "Type-1 angiotensin II receptor (Homo sapiens) (UniProt P30556)", "sequence (P30556 whole entry)": "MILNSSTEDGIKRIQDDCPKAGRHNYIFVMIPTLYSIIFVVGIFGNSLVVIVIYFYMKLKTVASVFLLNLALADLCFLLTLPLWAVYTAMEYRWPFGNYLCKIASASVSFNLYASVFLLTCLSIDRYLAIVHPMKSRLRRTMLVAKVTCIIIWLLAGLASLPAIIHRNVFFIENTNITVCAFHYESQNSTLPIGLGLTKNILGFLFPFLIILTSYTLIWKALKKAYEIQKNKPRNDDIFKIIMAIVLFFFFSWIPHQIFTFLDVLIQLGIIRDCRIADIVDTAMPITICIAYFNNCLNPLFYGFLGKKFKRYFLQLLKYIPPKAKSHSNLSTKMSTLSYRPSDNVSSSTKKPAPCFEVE", "test": "Inhibition of angiotensin AT1 at 10 uM"}, "HUVEC [3]": {"test_system": "HUVEC", "test": "Antiangiogenic activity in HUVEC assessed as inhibition of VEGF-induced survival", "format": "functional, cell-based", "details": "Homo sapiens"}, "[4]": {"test": "Inhibition of PKC at 1 uM"}, "[5]": {"molecular_target": "Vascular endothelial growth factor receptor 2 (Homo sapiens, UniProt P35968)", "sequence (P35968 whole entry)": "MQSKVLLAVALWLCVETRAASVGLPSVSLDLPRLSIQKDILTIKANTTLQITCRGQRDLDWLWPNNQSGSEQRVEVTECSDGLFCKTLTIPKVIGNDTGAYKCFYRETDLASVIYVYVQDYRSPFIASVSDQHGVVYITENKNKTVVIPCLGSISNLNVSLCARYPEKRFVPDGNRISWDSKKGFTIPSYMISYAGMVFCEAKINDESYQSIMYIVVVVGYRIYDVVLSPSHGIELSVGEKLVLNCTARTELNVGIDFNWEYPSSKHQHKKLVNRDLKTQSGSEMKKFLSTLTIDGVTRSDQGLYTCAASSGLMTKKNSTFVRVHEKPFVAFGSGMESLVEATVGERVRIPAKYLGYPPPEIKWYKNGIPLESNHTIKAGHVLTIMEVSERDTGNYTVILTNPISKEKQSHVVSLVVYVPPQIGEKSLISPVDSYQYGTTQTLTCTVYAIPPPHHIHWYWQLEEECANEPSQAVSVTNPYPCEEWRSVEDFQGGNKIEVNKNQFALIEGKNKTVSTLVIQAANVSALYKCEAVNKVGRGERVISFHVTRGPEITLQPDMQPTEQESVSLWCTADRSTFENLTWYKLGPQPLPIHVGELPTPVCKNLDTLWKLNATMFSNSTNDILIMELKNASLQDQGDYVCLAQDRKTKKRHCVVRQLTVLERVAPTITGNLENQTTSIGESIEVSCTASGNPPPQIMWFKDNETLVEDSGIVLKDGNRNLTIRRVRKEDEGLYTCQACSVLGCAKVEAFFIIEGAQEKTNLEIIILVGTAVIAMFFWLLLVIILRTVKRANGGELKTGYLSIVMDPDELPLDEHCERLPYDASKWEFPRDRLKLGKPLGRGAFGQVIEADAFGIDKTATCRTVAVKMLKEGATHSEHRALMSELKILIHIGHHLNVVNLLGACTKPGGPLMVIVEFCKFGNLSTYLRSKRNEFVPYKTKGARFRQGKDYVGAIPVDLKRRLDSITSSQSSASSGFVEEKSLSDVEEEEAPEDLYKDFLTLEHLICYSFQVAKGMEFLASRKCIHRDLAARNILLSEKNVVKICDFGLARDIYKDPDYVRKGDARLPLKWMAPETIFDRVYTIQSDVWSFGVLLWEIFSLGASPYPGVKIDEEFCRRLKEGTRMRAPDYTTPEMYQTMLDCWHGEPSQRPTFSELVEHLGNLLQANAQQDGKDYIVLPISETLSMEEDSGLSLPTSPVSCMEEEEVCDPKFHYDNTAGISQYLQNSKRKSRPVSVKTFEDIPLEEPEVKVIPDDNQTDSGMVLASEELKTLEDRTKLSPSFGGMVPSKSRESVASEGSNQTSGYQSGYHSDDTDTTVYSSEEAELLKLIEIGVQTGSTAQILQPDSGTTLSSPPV", "description": "Inhibition of human recombinant VEGF-R2 expressed in baculovirus expression system using GST-PLCgamma as substrate after 1 hr by time-resolved fluorescence analysis"}, "[6]": {"test": "Metabolic stability in human liver S9 fraction assessed as compound remaining after 2 hrs", "format": "ADME, subcellular", "details": "read-out: Stability"}, "[7]": {"test": "Antiangiogenic activity in BAEC assessed as inhibition of VEGF-induced proliferation", "format": "functional", "details": "Bos taurus"}, "A-375 [8]": {"test_system": "A-375", "test": "Antitumor activity against human A375 cells xenografted in athymic nude mouse assessed as tumor growth inhibition at 0.3 mg/kg, po bid measured on day 29 relative to control", "format": "functional", "details": "A-375, 696 h, read-out: GI"}, "A-375 [9]": {"test_system": "A-375", "test": "Antitumor activity against human A375 cells xenografted in athymic nude mouse assessed as tumor growth inhibition at 3 mg/kg, po bid measured on day 29 relative to control", "format": "functional", "details": "A-375, 696 h, read-out: GI"}, "HUVEC [10]": {"test_system": "HUVEC", "test": "Antiangiogenic activity in HUVEC assessed as inhibition of VEGF-induced proliferation", "format": "functional, cell-based", "details": "Homo sapiens"}, "[11]": {"molecular_target": "Receptor-type tyrosine-protein kinase FLT3 (Homo sapiens, UniProt P36888)", "sequence (P36888 whole entry)": "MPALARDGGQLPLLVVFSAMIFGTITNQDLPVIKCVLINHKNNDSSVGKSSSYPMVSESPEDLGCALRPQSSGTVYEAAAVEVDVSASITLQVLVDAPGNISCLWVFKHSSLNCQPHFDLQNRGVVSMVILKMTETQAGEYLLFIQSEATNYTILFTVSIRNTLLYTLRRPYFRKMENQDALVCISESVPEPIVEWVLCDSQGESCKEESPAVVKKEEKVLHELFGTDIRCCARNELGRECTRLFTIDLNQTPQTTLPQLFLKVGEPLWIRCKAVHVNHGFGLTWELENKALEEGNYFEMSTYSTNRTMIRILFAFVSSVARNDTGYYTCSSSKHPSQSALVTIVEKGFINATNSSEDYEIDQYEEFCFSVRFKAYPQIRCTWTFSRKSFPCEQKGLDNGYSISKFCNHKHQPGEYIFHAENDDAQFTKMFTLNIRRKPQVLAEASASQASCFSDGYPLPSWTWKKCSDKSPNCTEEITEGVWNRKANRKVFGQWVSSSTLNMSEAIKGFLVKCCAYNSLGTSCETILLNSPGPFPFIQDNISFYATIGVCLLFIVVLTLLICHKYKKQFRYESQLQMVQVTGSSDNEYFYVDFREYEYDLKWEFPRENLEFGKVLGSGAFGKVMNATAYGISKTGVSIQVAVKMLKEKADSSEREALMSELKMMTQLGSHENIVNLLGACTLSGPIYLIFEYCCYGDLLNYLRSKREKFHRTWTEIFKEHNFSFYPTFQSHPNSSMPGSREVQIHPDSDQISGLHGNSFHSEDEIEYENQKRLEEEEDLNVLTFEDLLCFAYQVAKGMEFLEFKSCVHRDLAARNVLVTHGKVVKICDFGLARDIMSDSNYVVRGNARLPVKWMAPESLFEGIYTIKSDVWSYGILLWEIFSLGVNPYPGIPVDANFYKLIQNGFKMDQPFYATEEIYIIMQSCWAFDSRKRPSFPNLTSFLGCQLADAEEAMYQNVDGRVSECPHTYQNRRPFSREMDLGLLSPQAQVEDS", "test": "Inhibition of human FLT3 using ATP as substrate"}, "[12]": {"molecular_target": "Platelet-derived growth factor receptor alpha (Homo sapiens, UniProt P16234)", "test": "Inhibition of human PDGFRalpha using ATP as substrate"}, "[13]": {"test": "Cmax in athymic nude mouse tumor xenografted with human U251MG cells at 30 mg/kg, po", "format": "ADME, organism-based, Neoplasm, U-251", "parameters": "dose 30 mg/kg, route oral"}, "[14]": {"molecular_target": "ALK tyrosine kinase receptor (Homo sapiens, UniProt Q9UM73)", "test": "Inhibition of human ALK using ATP as substrate"}, "HUVEC [15]": {"test_system": "HUVEC", "test": "Cytotoxicity against angiopoietin 1-stimulated HUVEC at > = 50 nM", "format": "cell-based", "details": "human"}, "[16]": {"test": "Antiangiogenic activity in HMVEC assessed as inhibition of FGF-induced migration", "format": "functional", "details": "Homo sapiens"}, "[17]": {"test": "Antitumor activity against human U251MG cells xenografted in athymic nude mouse assessed as complete tumor regression at 3 mg/kg, po bid", "format": "functional, U-251"}, "[18]": {"test": "Cmax in athymic nude mouse plasma xenografted with human A375 cells at 10 mg/kg, po"}, "[19]": {"molecular_target": "Adenosine receptor A3 (Homo sapiens) (UniProt P0DMS8)", "test": "Inhibition of adenosine A3 receptor at 10 uM"}, "Mus musculus": {"test_system": "Mus musculus", "test": "Toxicity in athymic nude mouse bearing human U251MG cells assessed as morbidity at 1 to 30 mg/kg, po", "format": "organism-based, U-251", "parameters": "dose 1-30 mg/kg, route oral", "details": "in vivo"}, "[20]": {"test": "Toxicity in dog purkinje fibres assessed as drug-induced QT interval change", "format": "tissue-based, Canis lupus familiaris, Purkinje fiber"}, "[21]": {"test": "Metabolic stability in dog liver S9 fraction assessed as compound remaining after 2 hrs", "format": "ADME, subcellular, Canis lupus familiaris", "details": "read-out: Stability"}, "[22]": {"test": "Oral bioavailability in cynomolgus monkey at 3 mg/kg", "format": "ADME, organism-based, Macaca fascicularis", "details": "in vivo"}, "[23]": {"molecular_target": "Fibroblast growth factor receptor 1 (Homo sapiens, UniProt P11362)", "test": "Inhibition of human FGFR1 using ATP as substrate"}, "[24]": {"test": "Cmax in Sprague-Dawley rat at 5 mg/kg, po", "format": "ADME, organism-based", "parameters": "dose 5 mg/kg, route oral", "details": "in vivo"}, "[25]": {"test": "Cmax in athymic nude mouse plasma xenografted with human U251MG cells at 30 mg/kg, po", "format": "ADME, organism-based, U-251", "parameters": "dose 30 mg/kg, route oral"}, "[26]": {"test": "AUC in cynomolgus monkey at 3 mg/kg, po", "format": "ADME, organism-based, Macaca fascicularis", "parameters": "dose 3 mg/kg, route oral", "details": "plasma"}, "[27]": {"test": "Antiangiogenic activity in HMVEC assessed as inhibition of FGF-induced survival", "format": "functional, Homo sapiens"}, "[28]": {"test": "AUC in Sprague-Dawley rat at 5 mg/kg, po", "format": "ADME, organism-based", "parameters": "dose 5 mg/kg, route oral", "details": "plasma"}, "[29]": {"test": "Antitumor activity against human U251MG cells xenografted in po dosed athymic nude mouse assessed as tumor growth inhibition bid measured on day 29 relative to control", "format": "functional", "details": "U-251, po, 696 h, read-out: MED"}, "[30]": {"test": "Half life in Sprague-Dawley rat at 5 mg/kg, po", "format": "ADME, organism-based", "parameters": "dose 5 mg/kg, route oral", "details": "in vivo"}, "[31]": {"test": "Inhibition of PDGFR at 1 uM"}, "[32]": {"molecular_target": "Serine/threonine-protein kinase Chk2 (Homo sapiens, UniProt O96017)", "sequence (O96017 whole entry)": "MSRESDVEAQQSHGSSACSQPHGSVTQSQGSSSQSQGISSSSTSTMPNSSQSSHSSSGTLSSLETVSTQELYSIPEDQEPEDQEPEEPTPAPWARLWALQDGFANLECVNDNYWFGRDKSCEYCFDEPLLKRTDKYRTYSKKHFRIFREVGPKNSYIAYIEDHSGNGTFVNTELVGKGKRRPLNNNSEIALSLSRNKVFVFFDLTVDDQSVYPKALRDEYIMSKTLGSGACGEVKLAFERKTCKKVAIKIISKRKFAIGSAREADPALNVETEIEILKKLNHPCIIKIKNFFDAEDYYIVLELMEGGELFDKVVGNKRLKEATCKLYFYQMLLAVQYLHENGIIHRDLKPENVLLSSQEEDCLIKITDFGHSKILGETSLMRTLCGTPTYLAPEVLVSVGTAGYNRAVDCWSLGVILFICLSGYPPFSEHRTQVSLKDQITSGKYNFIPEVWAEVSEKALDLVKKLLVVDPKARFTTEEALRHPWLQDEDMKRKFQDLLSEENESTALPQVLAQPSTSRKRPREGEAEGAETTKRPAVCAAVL", "test": "Inhibition of human CHK2 using ATP as substrate"}, "[33]": {"test": "Metabolic stability in mouse liver S9 fraction assessed as compound remaining after 2 hrs", "format": "ADME, subcellular", "details": "read-out: Stability"}, "[34]": {"test": "Antiangiogenic activity in HMVEC assessed as inhibition of VEGF-induced migration", "format": "functional", "details": "Homo sapiens"}, "[35]": {"test": "Terminal half life in Sprague-Dawley rat at 0.8 mg/kg, iv", "format": "ADME, organism-based", "parameters": "dose 0.8 mg/kg, route intravenous", "details": "in vivo, read-out: beta t1/2 (converted)"}, "[36]": {"molecular_target": "Voltage-gated inwardly rectifying potassium channel KCNH2 (Homo sapiens, UniProt Q12809)", "sequence (Q12809 whole entry)": "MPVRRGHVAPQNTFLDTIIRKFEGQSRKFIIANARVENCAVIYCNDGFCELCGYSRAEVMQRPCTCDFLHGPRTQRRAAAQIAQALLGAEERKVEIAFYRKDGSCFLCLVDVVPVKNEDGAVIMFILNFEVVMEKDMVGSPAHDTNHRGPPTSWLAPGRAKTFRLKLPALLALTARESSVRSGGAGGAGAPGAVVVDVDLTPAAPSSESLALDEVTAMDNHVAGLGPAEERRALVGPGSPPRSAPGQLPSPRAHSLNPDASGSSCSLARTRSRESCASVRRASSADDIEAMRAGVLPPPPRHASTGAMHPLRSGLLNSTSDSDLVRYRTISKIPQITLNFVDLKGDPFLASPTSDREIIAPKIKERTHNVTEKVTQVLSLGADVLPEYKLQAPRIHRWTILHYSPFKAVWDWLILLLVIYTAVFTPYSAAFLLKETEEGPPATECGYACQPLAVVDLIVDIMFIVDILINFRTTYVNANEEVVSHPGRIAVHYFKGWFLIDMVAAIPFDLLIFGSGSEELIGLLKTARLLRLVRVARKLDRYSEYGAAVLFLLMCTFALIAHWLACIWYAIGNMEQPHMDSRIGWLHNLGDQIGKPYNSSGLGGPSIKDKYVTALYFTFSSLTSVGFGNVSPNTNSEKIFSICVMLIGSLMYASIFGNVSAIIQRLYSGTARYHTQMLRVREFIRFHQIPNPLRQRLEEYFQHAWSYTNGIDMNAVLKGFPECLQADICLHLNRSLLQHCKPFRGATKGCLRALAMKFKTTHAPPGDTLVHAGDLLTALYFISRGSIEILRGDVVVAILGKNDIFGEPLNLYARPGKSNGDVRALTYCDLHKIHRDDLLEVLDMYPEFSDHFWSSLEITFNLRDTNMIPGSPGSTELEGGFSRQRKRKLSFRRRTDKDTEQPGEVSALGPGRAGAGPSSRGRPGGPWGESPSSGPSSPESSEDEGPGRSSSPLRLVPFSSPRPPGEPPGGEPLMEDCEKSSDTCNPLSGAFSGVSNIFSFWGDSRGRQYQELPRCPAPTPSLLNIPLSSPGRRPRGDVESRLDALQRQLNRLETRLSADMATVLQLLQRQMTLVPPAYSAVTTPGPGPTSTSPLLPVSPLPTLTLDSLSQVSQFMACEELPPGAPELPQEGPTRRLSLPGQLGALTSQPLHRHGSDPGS", "test": "Inhibition of human Erg expressed CHO cells", "format": "cell-based"}, "[37]": {"molecular_target": "Muscarinic acetylcholine receptor M2 (Homo sapiens) (UniProt P08172)", "sequence (P08172 whole entry)": "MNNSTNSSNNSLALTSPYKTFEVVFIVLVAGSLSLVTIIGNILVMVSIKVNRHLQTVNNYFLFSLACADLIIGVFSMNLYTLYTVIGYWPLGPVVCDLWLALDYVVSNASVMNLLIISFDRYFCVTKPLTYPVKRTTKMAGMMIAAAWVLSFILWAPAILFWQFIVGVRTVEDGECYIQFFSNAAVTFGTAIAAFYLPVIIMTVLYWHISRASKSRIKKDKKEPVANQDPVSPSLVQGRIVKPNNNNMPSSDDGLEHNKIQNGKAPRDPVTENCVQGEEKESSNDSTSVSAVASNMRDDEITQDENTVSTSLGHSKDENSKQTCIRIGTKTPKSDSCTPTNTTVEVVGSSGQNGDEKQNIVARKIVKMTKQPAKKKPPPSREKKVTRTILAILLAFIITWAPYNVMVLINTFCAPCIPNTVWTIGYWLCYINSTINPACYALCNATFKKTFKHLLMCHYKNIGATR", "test": "Inhibition of muscarinic M2 receptor at 10 uM"}},
  "note": "Activity calls are given as the source filed them. The calls are words filed in the database; no cut-off is given here.",
  "data": [
    {"smiles": "CC(C)Cn1c2ccc(Nc3ncccn3)cc2c2c3c(c4c(c21)CCc1nn(C)cc1-4)C(=O)NC3", "note": "[CEP-11981]", "values": [
      {"measurement": "half-life", "setting": "[1]", "result": 2.4, "unit": "h"},
      {"measurement": "inhibition", "setting": "[2]", "result": "> 80", "unit": "%"},
      {"measurement": "EC50", "setting": "HUVEC [3]", "result": 8, "unit": "nM"},
      {"measurement": "inhibition", "setting": "[4]", "result": "Active"},
      {"measurement": "IC50", "setting": "[5]", "result": 4, "unit": "nM"},
      {"measurement": "remaining at 2 h", "setting": "[6]", "result": 79, "unit": "%"},
      {"measurement": "EC50", "setting": "[7]", "result": 8, "unit": "nM"},
      {"measurement": "inhibition in vivo at 0.3 mg/kg", "setting": "A-375 [8]", "result": 71, "unit": "%"},
      {"measurement": "inhibition in vivo at 3 mg/kg", "setting": "A-375 [9]", "result": 90, "unit": "%"},
      {"measurement": "EC50", "setting": "HUVEC [10]", "result": 8, "unit": "nM"},
      {"measurement": "IC50", "setting": "[11]", "result": 71, "unit": "nM"},
      {"measurement": "IC50", "setting": "[12]", "result": 246, "unit": "nM"},
      {"measurement": "Cmax", "setting": "[13]", "result": 401, "unit": "ng/g"},
      {"measurement": "IC50", "setting": "[14]", "result": 132, "unit": "nM"},
      {"measurement": "Activity", "setting": "HUVEC [15]", "result": "Non-toxic"},
      {"measurement": "EC50", "setting": "[16]", "result": 8, "unit": "nM"},
      {"measurement": "Activity", "setting": "[17]", "result": 0, "unit": "%"},
      {"measurement": "Cmax", "setting": "[18]", "result": 456, "unit": "ng/mL"},
      {"measurement": "inhibition", "setting": "[19]", "result": "> 80", "unit": "%"},
      {"measurement": "Activity", "setting": "Mus musculus", "result": "Non-toxic"},
      {"measurement": "Activity", "setting": "[20]", "result": "Non-toxic"},
      {"measurement": "remaining at 2 h", "setting": "[21]", "result": 65, "unit": "%"},
      {"measurement": "bioavailability", "setting": "[22]", "result": 93, "unit": "%"},
      {"measurement": "IC50", "setting": "[23]", "result": 13, "unit": "nM"},
      {"measurement": "Cmax", "setting": "[24]", "result": 1330, "unit": "ng/mL"},
      {"measurement": "Cmax", "setting": "[25]", "result": 1200, "unit": "ng/mL"},
      {"measurement": "AUC", "setting": "[26]", "result": 2480, "unit": "ng·h/mL"},
      {"measurement": "EC50", "setting": "[27]", "result": 8, "unit": "nM"},
      {"measurement": "AUC", "setting": "[28]", "result": 8560, "unit": "ng·h/mL"},
      {"measurement": "minimal effective dose", "setting": "[29]", "result": 3, "unit": "mg/kg"},
      {"measurement": "half-life", "setting": "[30]", "result": 3, "unit": "h"},
      {"measurement": "inhibition", "setting": "[31]", "result": "Active"},
      {"measurement": "IC50", "setting": "[32]", "result": 140, "unit": "nM"},
      {"measurement": "remaining at 2 h", "setting": "[33]", "result": 65, "unit": "%"},
      {"measurement": "EC50", "setting": "[34]", "result": 8, "unit": "nM"},
      {"measurement": "half-life", "setting": "[35]", "result": 1.9, "unit": "h"},
      {"measurement": "IC50", "setting": "[36]", "result": 20000, "unit": "nM"},
      {"measurement": "inhibition", "setting": "[37]", "result": "> 80", "unit": "%"}
    ]}
  ]
}
